Assay results published in PubChem BioAssay (NCI).
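96-well plates; 48 h exposure; 5 concentrations. Endpoints by linear interpolation between flanking doses. Not reached: highest tested concentration assigned. At the TGI there is no net growth.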

Assays:
Assay in all cases: DTP human tumour cell line panel, 48 h
IGROV1 ovarian = system: IGROV1 ovarian
SW-620 colon = system: SW-620 colon
HL-60(TB) leukemia = system: HL-60(TB) leukemia
OVCAR-3 ovarian = system: OVCAR-3 ovarian
TK-10 renal = system: TK-10 renal
SK-MEL-2 melanoma = system: SK-MEL-2 melanoma
U251 CNS = system: U251 CNS
SK-MEL-28 melanoma = system: SK-MEL-28 melanoma
MCF7 breast = system: MCF7 breast
SNB-19 CNS = system: SNB-19 CNS
MDA-MB-231 breast = system: MDA-MB-231 breast
EKVX NSCLC = system: EKVX NSCLC
OVCAR-8 ovarian = system: OVCAR-8 ovarian
SN12C renal = system: SN12C renal
A498 renal = system: A498 renal
SNB-75 CNS = system: SNB-75 CNS
A549 NSCLC = system: A549 NSCLC
CAKI-1 renal = system: CAKI-1 renal
RPMI-8226 leukemia = system: RPMI-8226 leukemia
SR leukemia = system: SR leukemia
UO-31 renal = system: UO-31 renal
SF-539 CNS = system: SF-539 CNS
NCI-H460 lung = system: NCI-H460 lung
HT29 colon = system: HT29 colon
DU-145 prostate = system: DU-145 prostate
NCI-H522 lung = system: NCI-H522 lung
PC-3 prostate = system: PC-3 prostate
SK-OV-3 ovarian = system: SK-OV-3 ovarian
MDA-N = system: MDA-N
NCI-H23 lung = system: NCI-H23 lung
T-47D breast = system: T-47D breast
HCC-2998 colon = system: HCC-2998 colon
SF-268 CNS = system: SF-268 CNS
MALME-3M melanoma = system: MALME-3M melanoma
K-562 leukemia = system: K-562 leukemia
KM12 colon = system: KM12 colon
HCT-15 colon = system: HCT-15 colon
COLO 205 colon = system: COLO 205 colon
786-0 renal = system: 786-0 renal
M14 melanoma = system: M14 melanoma
UACC-257 melanoma = system: UACC-257 melanoma
NCI/ADR-RES ovarian = system: NCI/ADR-RES ovarian
HCT-116 colon = system: HCT-116 colon
BT-549 breast = system: BT-549 breast
CCRF-CEM leukemia = system: CCRF-CEM leukemia
NCI-H226 lung = system: NCI-H226 lung
HS 578T breast = system: HS 578T breast
LOX IMVI melanoma = system: LOX IMVI melanoma
OVCAR-4 ovarian = system: OVCAR-4 ovarian
ACHN renal = system: ACHN renal
SK-MEL-5 melanoma = system: SK-MEL-5 melanoma
MDA-MB-435 = system: MDA-MB-435
RXF 393 renal = system: RXF 393 renal
MOLT-4 leukemia = system: MOLT-4 leukemia
OVCAR-5 ovarian = system: OVCAR-5 ovarian
HOP-62 NSCLC = system: HOP-62 NSCLC
SF-295 CNS = system: SF-295 CNS
UACC-62 melanoma = system: UACC-62 melanoma
HOP-92 NSCLC = system: HOP-92 NSCLC

## CCCC(=O)OCC1OC(n2cc(F)c(=O)[nH]c2=O)CC1O (stereo not drawn)
IGROV1 ovarian
  TGI: > 10 µM
SW-620 colon
  TGI: > 10 µM
HL-60(TB) leukemia
  TGI: > 10 µM
OVCAR-3 ovarian
  TGI: > 10 µM
TK-10 renal
  TGI: > 10 µM
SK-MEL-2 melanoma
  TGI: > 10 µM
U251 CNS
  TGI: > 10 µM
SK-MEL-28 melanoma
  TGI: > 10 µM
MCF7 breast
  TGI: > 10 µM
SNB-19 CNS
  TGI: > 10 µM
MDA-MB-231 breast
  TGI: > 10 µM
EKVX NSCLC
  TGI: > 10 µM
OVCAR-8 ovarian
  TGI: > 10 µM
SN12C renal
  TGI: > 10 µM
A498 renal
  TGI: > 9.04 µM
SNB-75 CNS
  TGI: 9.55 µM
A549 NSCLC
  TGI: > 10 µM
CAKI-1 renal
  TGI: > 10 µM
RPMI-8226 leukemia
  TGI: > 10 µM
SR leukemia
  TGI: > 10 µM
UO-31 renal
  TGI: > 10 µM
SF-539 CNS
  TGI: 0.247 µM
NCI-H460 lung
  TGI: > 10 µM
HT29 colon
  TGI: > 10 µM
DU-145 prostate
  TGI: > 10 µM
NCI-H522 lung
  TGI: > 10 µM
PC-3 prostate
  TGI: > 10 µM
SK-OV-3 ovarian
  TGI: > 10 µM
MDA-N
  TGI: > 10 µM
NCI-H23 lung
  TGI: 1.66 µM
T-47D breast
  TGI: > 10 µM
HCC-2998 colon
  TGI: > 2.97 µM
SF-268 CNS
  TGI: > 10 µM
MALME-3M melanoma
  TGI: > 10 µM
K-562 leukemia
  TGI: > 10 µM
KM12 colon
  TGI: > 10 µM
HCT-15 colon
  TGI: > 10 µM
COLO 205 colon
  TGI: > 10 µM
786-0 renal
  TGI: > 10 µM
M14 melanoma
  TGI: > 10 µM
UACC-257 melanoma
  TGI: > 10 µM
NCI/ADR-RES ovarian
  TGI: > 10 µM
HCT-116 colon
  TGI: > 10 µM
BT-549 breast
  TGI: > 10 µM
CCRF-CEM leukemia
  TGI: > 10 µM
NCI-H226 lung
  TGI: > 10 µM
HS 578T breast
  TGI: > 10 µM
LOX IMVI melanoma
  TGI: > 8.79 µM
OVCAR-4 ovarian
  TGI: > 10 µM
ACHN renal
  TGI: > 10 µM
SK-MEL-5 melanoma
  TGI: 1.35 µM
MDA-MB-435
  TGI: > 10 µM
RXF 393 renal
  TGI: > 10 µM
MOLT-4 leukemia
  TGI: > 10 µM
OVCAR-5 ovarian
  TGI: > 10 µM
HOP-62 NSCLC
  TGI: > 10 µM
SF-295 CNS
  TGI: > 3.02 µM
UACC-62 melanoma
  TGI: > 10 µM
HOP-92 NSCLC
  TGI: > 10 µM

## C/C(=N\NC(=O)c1ccncc1)c1sc(-n2nc(-c3ccccc3)cc2-c2ccccc2)nc1C
IGROV1 ovarian
  TGI: > 100 µM
SW-620 colon
  TGI: > 31.6 µM
HL-60(TB) leukemia
  TGI: > 31.6 µM
OVCAR-3 ovarian
  TGI: > 31.6 µM
TK-10 renal
  TGI: > 31.6 µM
SK-MEL-2 melanoma
  TGI: > 31.6 µM
U251 CNS
  TGI: > 31.6 µM
SK-MEL-28 melanoma
  TGI: > 31.6 µM
MCF7 breast
  TGI: > 31.6 µM
SNB-19 CNS
  TGI: > 31.6 µM
MDA-MB-231 breast
  TGI: > 100 µM
EKVX NSCLC
  TGI: > 100 µM
OVCAR-8 ovarian
  TGI: > 100 µM
SN12C renal
  TGI: > 100 µM
A498 renal
  TGI: > 100 µM
SNB-75 CNS
  TGI: > 100 µM
A549 NSCLC
  TGI: > 31.6 µM
CAKI-1 renal
  TGI: > 100 µM
RPMI-8226 leukemia
  TGI: > 31.6 µM
SR leukemia
  TGI: > 31.6 µM
UO-31 renal
  TGI: > 31.6 µM
SF-539 CNS
  TGI: > 31.6 µM
NCI-H460 lung
  TGI: > 31.6 µM
HT29 colon
  TGI: > 100 µM
DU-145 prostate
  TGI: > 31.6 µM
NCI-H522 lung
  TGI: > 80.5 µM
PC-3 prostate
  TGI: > 31.6 µM
SK-OV-3 ovarian
  TGI: > 31.6 µM
MDA-N
  TGI: > 100 µM
NCI-H23 lung
  TGI: > 31.6 µM
T-47D breast
  TGI: > 31.6 µM
HCC-2998 colon
  TGI: > 31.6 µM
SF-268 CNS
  TGI: > 100 µM
MALME-3M melanoma
  TGI: > 100 µM
K-562 leukemia
  TGI: > 100 µM
KM12 colon
  TGI: > 100 µM
HCT-15 colon
  TGI: > 31.6 µM
COLO 205 colon
  TGI: > 100 µM
786-0 renal
  TGI: > 31.6 µM
M14 melanoma
  TGI: > 31.6 µM
UACC-257 melanoma
  TGI: > 31.6 µM
NCI/ADR-RES ovarian
  TGI: > 100 µM
HCT-116 colon
  TGI: > 31.6 µM
BT-549 breast
  TGI: > 31.6 µM
CCRF-CEM leukemia
  TGI: > 31.6 µM
NCI-H226 lung
  TGI: > 100 µM
HS 578T breast
  TGI: > 100 µM
LOX IMVI melanoma
  TGI: > 100 µM
OVCAR-4 ovarian
  TGI: > 31.6 µM
ACHN renal
  TGI: > 31.6 µM
SK-MEL-5 melanoma
  TGI: > 31.6 µM
MDA-MB-435
  TGI: > 31.6 µM
RXF 393 renal
  TGI: > 31.6 µM
MOLT-4 leukemia
  TGI: > 31.6 µM
OVCAR-5 ovarian
  TGI: > 31.6 µM
HOP-62 NSCLC
  TGI: > 31.6 µM
SF-295 CNS
  TGI: > 31.6 µM
UACC-62 melanoma
  TGI: > 31.6 µM
HOP-92 NSCLC
  TGI: > 31.6 µM
